Reference: paper PMC12073449, “Development of a Mechanism of Action-Reflective Cell-Based Reporter Gene Assay for Measuring Bioactivities of Therapeutic Glucagon-like Peptide-2 Analogues” (Molecules, 2025)
Ends that are not written are not given here.

System: HEK293-GLP-2R-Luc cells

HGEGTFSSELATILDALAARDFINWLIATKITDKKKKKK-NH2 [glepaglutide]
log2 (TD/Ctrl) CACNB1 (Qvalue 4.04 × 10^−5): 1.075
log2 (TD/Ctrl) CHAC1 (Qvalue 4.05 × 10^−4): 1.141
log2 (TD/Ctrl) PDK4 (Qvalue 4.05 × 10^−7): 1.463
log2 (TD/Ctrl) GUCY1A1 (Qvalue 4.19 × 10^−5): −1.107
log2 (TD/Ctrl) SNAP25 (Qvalue 4.24 × 10^−5): 1.698
log2 (TD/Ctrl) CALCB (Qvalue 4.28 × 10^−58): 3.658
log2 (TD/Ctrl) PDE8B (Qvalue 4.35 × 10^−6): 1.08
log2 (TD/Ctrl) FAM86B2 (Qvalue 4.40 × 10^−6): 1.144
log2 (TD/Ctrl) CD55 (Qvalue 4.43 × 10^−29): 1.554
log2 (TD/Ctrl) PDE10A (Qvalue 4.45 × 10^−11): 1.052
log2 (TD/Ctrl) IGFBP5 (Qvalue 4.48 × 10^−29): −1.803
log2 (TD/Ctrl) PPP1R15A (Qvalue 4.52 × 10^−19): 1.729
log2 (TD/Ctrl) FAM131B (Qvalue 4.57 × 10^−4): 2.284
log2 (TD/Ctrl) DCLK1 (Qvalue 4.77 × 10^−6): 1.118
log2 (TD/Ctrl) ARC (Qvalue 4.77 × 10^−21): 2.548
log2 (TD/Ctrl) TRMT11 (Qvalue 4.83 × 10^−7): 1.007
log2 (TD/Ctrl) BRSK1 (Qvalue 4.84 × 10^−4): 1.033
log2 (TD/Ctrl) CXCL8 (Qvalue 4.89 × 10^−10): 2.264
log2 (TD/Ctrl) MMP10 (Qvalue 4.91 × 10^−4): 2.63
log2 (TD/Ctrl) NTS (Qvalue 4.98 × 10^−8): 3.901
log2 (TD/Ctrl) INKA2 (Qvalue 5.19 × 10^−4): −1.14
log2 (TD/Ctrl) RSRC2 (Qvalue 5.28 × 10^−10): 1.09
log2 (TD/Ctrl) PCDH9 (Qvalue 5.30 × 10^−8): −1.158
log2 (TD/Ctrl) NCOA5 (Qvalue 5.31 × 10^−8): −1.2433
log2 (TD/Ctrl) PROCR (Qvalue 5.32 × 10^−8): 1.201
log2 (TD/Ctrl) AVPI1 (Qvalue 5.33 × 10^−8): 1.192
log2 (TD/Ctrl) IL12A (Qvalue 5.36 × 10^−4): 1.606
log2 (TD/Ctrl) CCN2 (Qvalue 5.36 × 10^−15): 2.558
log2 (TD/Ctrl) PCSK1 (Qvalue 5.37 × 10^−34): 5.002
log2 (TD/Ctrl) HSPB8 (Qvalue 5.44 × 10^−4): 1.961
log2 (TD/Ctrl) CHGB (Qvalue 5.45 × 10^−20): 3.305
log2 (TD/Ctrl) LY6K (Qvalue 5.54 × 10^−6): 2.444
log2 (TD/Ctrl) TNFRSF10D (Qvalue 5.55 × 10^−11): −1.432
log2 (TD/Ctrl) RNF122 (Qvalue 5.63 × 10^−24): 1.985
log2 (TD/Ctrl) PAPPA (Qvalue 5.75 × 10^−4): 1.578
log2 (TD/Ctrl) CTH (Qvalue 5.77 × 10^−13): 1.317
log2 (TD/Ctrl) ETV5 (Qvalue 5.77 × 10^−17): 1.932
log2 (TD/Ctrl) FOSL1 (Qvalue 5.84 × 10^−23): 3.193
log2 (TD/Ctrl) UBE2QL1 (Qvalue 5.89 × 10^−10): 1.897
log2 (TD/Ctrl) PCK1 (Qvalue 5.99 × 10^−8): 4.954
log2 (TD/Ctrl) SYAP1 (Qvalue 6.03 × 10^−37): 1.501
log2 (TD/Ctrl) ADAMTS1 (Qvalue 6.10 × 10^−16): 1.32
log2 (TD/Ctrl) TSPAN18 (Qvalue 6.12 × 10^−5): 1.221
log2 (TD/Ctrl) ZNF697 (Qvalue 6.15 × 10^−17): 1.651
log2 (TD/Ctrl) NME1-NME2 (Qvalue 6.18 × 10^−4): 1.069
log2 (TD/Ctrl) TAF1D (Qvalue 6.18 × 10^−6): 1.001
log2 (TD/Ctrl) GAB2 (Qvalue 6.27 × 10^−10): 1.866
log2 (TD/Ctrl) ZNF718 (Qvalue 6.33 × 10^−4): −1.3027
log2 (TD/Ctrl) OMA1 (Qvalue 6.34 × 10^−6): −1.165
log2 (TD/Ctrl) EPHA7 (Qvalue 6.41 × 10^−18): −1.443
log2 (TD/Ctrl) NR4A3 (Qvalue 6.44 × 10^−8): 1.795
log2 (TD/Ctrl) AREG (Qvalue 6.48 × 10^−5): 3.509
log2 (TD/Ctrl) ZCCHC12 (Qvalue 6.60 × 10^−42): 2.11
log2 (TD/Ctrl) CHMP1B (Qvalue 6.69 × 10^−14): 1.048
log2 (TD/Ctrl) KBTBD7 (Qvalue 6.73 × 10^−6): −1.122
log2 (TD/Ctrl) FAM200C (Qvalue 6.74 × 10^−4): −1.19
log2 (TD/Ctrl) EGR1 (Qvalue 6.76 × 10^−10): 2.978
log2 (TD/Ctrl) PLAUR (Qvalue 6.86 × 10^−10): 1.559
log2 (TD/Ctrl) MAP2K6 (Qvalue 6.95 × 10^−9): −1.348
log2 (TD/Ctrl) NR4A2 (Qvalue 7.07 × 10^−23): 2.428
log2 (TD/Ctrl) P2RY11 (Qvalue 7.12 × 10^−9): −9.7959
log2 (TD/Ctrl) CARMIL2 (Qvalue 7.13 × 10^−10): 1.753
log2 (TD/Ctrl) COL7A1 (Qvalue 7.17 × 10^−4): −1.612
log2 (TD/Ctrl) KRT17 (Qvalue 7.46 × 10^−4): 3.685
log2 (TD/Ctrl) PTRH1 (Qvalue 7.65 × 10^−4): 1.322
log2 (TD/Ctrl) CBARP (Qvalue 7.76 × 10^−5): 1.225
log2 (TD/Ctrl) ZBTB12 (Qvalue 7.78 × 10^−9): −1.6
log2 (TD/Ctrl) CGA (Qvalue 7.84 × 10^−76): 7.042
log2 (TD/Ctrl) SERPINE2 (Qvalue 7.93 × 10^−10): 1.136
log2 (TD/Ctrl) GABARAPL1 (Qvalue 8.03 × 10^−15): 1.405
log2 (TD/Ctrl) COL1A1 (Qvalue 8.07 × 10^−20): 1.91
log2 (TD/Ctrl) NDRG4 (Qvalue 8.22 × 10^−4): 1.306
log2 (TD/Ctrl) QRICH2 (Qvalue 8.25 × 10^−6): −1.253
log2 (TD/Ctrl) CD24 (Qvalue 8.27 × 10^−27): 2.289
log2 (TD/Ctrl) ZNF331 (Qvalue 8.43 × 10^−12): 1.041
log2 (TD/Ctrl) FZD4 (Qvalue 8.54 × 10^−5): −1.071
log2 (TD/Ctrl) RGS6 (Qvalue 8.61 × 10^−5): 4.489
log2 (TD/Ctrl) NR4A1 (Qvalue 8.67 × 10^−7): 4.426
log2 (TD/Ctrl) BMPER (Qvalue 8.87 × 10^−4): 2.13
log2 (TD/Ctrl) IER2 (Qvalue 9.14 × 10^−13): 1.167
log2 (TD/Ctrl) INHBA (Qvalue 9.22 × 10^−49): 4.678
log2 (TD/Ctrl) SERPINB9 (Qvalue 9.32 × 10^−11): 1.4
log2 (TD/Ctrl) GADD45B (Qvalue 9.33 × 10^−42): 1.995
log2 (TD/Ctrl) FAM111B (Qvalue 9.51 × 10^−4): −1.222
log2 (TD/Ctrl) FHL2 (Qvalue 9.62 × 10^−6): 1.082
log2 (TD/Ctrl) NFKB2 (Qvalue 9.77 × 10^−25): 1.551
log2 (TD/Ctrl) EDA2R (Qvalue 9.85 × 10^−6): −1.374
log2 (TD/Ctrl) EGR3 (Qvalue 9.86 × 10^−8): 2.228
log2 (TD/Ctrl) LAMB3 (Qvalue 9.88 × 10^−5): 1.323
log2 (TD/Ctrl) SAP30L (Qvalue 9.88 × 10^−7): −1.0123
log2 (TD/Ctrl) SCARA5 (Qvalue […] 10^−12): 3.284
log2 (TD/Ctrl) GCNA (Qvalue […] 10^−17): 1.602
log2 (TD/Ctrl) TAC1 (Qvalue […] 10^−76): 4.689
